In data set [1] the test system is sheep. The data set can be described thus: Sheep exhalant breath trial after vitamin K1 drench (Douglas Bag type apparatus, Micro GC). It counts as in vivo. The procedure: The sheep tested in this trial were ewe sheep. In this and all subsequent sheep trials, the sheep were yarded for 24 hours before the trial commenced, so their rumen was at least partially empty since they could not eat when yarded. In total, 60 sheep were tested in similar trials on two different sheep farms. The sheep in each trial were divided randomly into two equal groups, one group being an experimental group and the other group being a control group.
The sheep were driven into a race and each individual was drenched as they came to the end of the race. Sheep in the experimental group and control group were given a 50 ml drench prior to yard release and normal grazing and behaviour.
The sheep were let out to feed in a field and allowed to graze on grass freely. They were herded back at intervals and their exhalant breath captured. The breath exhalation of sheep was measured using the apparatus shown in FIG. 4, according to one or more embodiments, being an instrument based on Douglas Bag equipment for the sampling of exhalant breath from humans. Note that the air space in the tubes shown in FIG. 4 is exaggerated in the drawing, according to one or more embodiments. In reality, the air space may be kept to as small a volume as possible to avoid contamination of the exhalant breath with the dead air in the tubes. The gas impermeable bag used for exhalant breath capture must be as big as possible since methane is largely released periodically as a burp rather than in the exhalant breath.
The apparatus of FIG. 4 was designed specifically for use on sheep, according to one or more embodiments. On inspiration by the sheep, the valve opens and the sheep is able to breath in fresh air. On exhalation by the sheep, the valve closes and the exhaled air is directed in to the gas impermeable balloon. It is important that the balloon used is not expanded by the exhaled air, but is merely collected. Otherwise, back pressure may develop which has the potential to interfere with the breathing of the sheep. The valve could be either a flap valve or a table tennis ball. The latter was identified by the inventor as an ideal light weight valve.
The breath exhalant collected was analysed using an Agilent Micro GC with 2 dual columns: molecular sieve 5A and Plot-Q columns.
The six control sheep were drenched with 50 ml of 30% ethyl alcohol plus 50 ml water.
In this trial, the same trial was completed as in Example 3 above however, in this trial male sheep (rams) were trialed and the exhalant breath of the trial animals was tested over a time period of two days, samples taken on day 0, 1 and 2. Five rams were drenched with vitamin K1 and four rams were not drenched at all and used as controls.

The subject of data set [2] is rumen fluid from live cows. The data set can be described thus: Fermentation of dried grass with rumen fluid from fistulated cows that drank dilute vitamin K1 solution. The class given is in vivo, cow. As to conditions: drinking water, 100 ml of tincture to 20 litres of water. From the text:
The collected rumen fluid was then fermented with dried grass in the fermenter described in Example 1 and FIG. 1.

The test system of data set [3] is cow pats (faeces). The data set can be described thus: Fermentation of cow pats from cows drenched with vitamin K1. As to conditions: FIG. 9; no vitamin K1 added to the cow pats. It counts as in vivo. As for the experimental part:
The cows in both fields were of the same breed and provenance.
The resulting cow pat samples were fermented using the apparatus described in Example 1 and FIG. 1 and gas produced collected and tested. Vitamin K1 was not added to the cow pats.
An qualitative test was also completed where the smell of the gases in the fermentation chambers were assessed at the end of fermentation.

The conditions of data set [4]: EFSA report 2013; cited from earlier work.
Data set [5] concerns rumen regions AD, PD, PV, AV. The data set can be described thus: Natural fermentation and pH of fluid from different rumen regions. The class given is cell-based, cow. As to conditions: FIG. 13. From the text:
The different rumen regions were sampled by collecting the rumen of a slaughtered animal and making a cut with a sterile knife in a particular region and then palpating fluid samples using gloved hands from the cut. Cuts were made in the anterior dorsal region of the rumen (AD), the posterior region (PD), the posterior ventral (PV) and the anterior ventral (AV).
FIG. 13 is a graph showing the results of natural fermentation (without the addition of substrate other than the material eaten by the cow before death), according to one or more embodiments.
The pH difference between experimental, which were dosed with vitamin K1, and the controls, which were not dosed with vitamin K1, was greatest at position AD. The average pH in the control samples was 6.51 and in the experimental samples, the average pH was 6.34.

The structures appear in SMILES notation.

With `CC1=C(C/C=C(\C)CCC[C@H](C)CCC[C@H](C)CCCC(C)C)C(=O)c2ccccc2C1=O` [vitamin K1], in data set [1] (ewes drenched with tincture plus water, versus control sheep), the “emitted methane in exhalant breath” value is given as “significant reduction”. For the same compound, the “ill effects after dosing” value in data set [1] (ewes, drench) is reported as “did not show any ill effects”. In addition, the “percentage decrease in methane production compared to control sheep” value in data set [1] (rams, drench, day 2) was 71%. For the same compound, the “amount of emitted gasses, carbon dioxide and methane” value in data set [1] (treated versus control sheep) is given as “marked lessening”. Further, in data set [2], the “reduction in carbon dioxide production” value is “approximately 29%”, the “reduction in methane production” value is “approximately 20%” and the “reduction in total gas production” value was “approximately 25%”. In addition, the “vitamin K1 effect on gas production carried through to faeces” value in data set [3] was “still active in the faeces”. The “risk to the environment” value in data set [4] was “not a risk to the environment”. Also, the “rumen region of greatest inhibition” value in data set [5] is “maximum inhibitory effect in the PV region”. Also, the “rate of methane production in rumen regions” value in data set [5] (natural fermentation without added substrate) is given as “lower the rate of methane production”.

The record behind these values is patent US12263140B1, “Methods of reducing the production of greenhouse gases from animals” (AGRICULTURAL SCIENCES LIMITED, priority 2023, dated 2025).
